We go through five compounds from patent US9944583B2, “Methods for ameliorating and preventing central nervous system inflammation” (THE REGENTS OF THE UNIVERSITY OF CALIFORNIA, priority 2007, dated 2018).

Entries after “also recorded” stand apart in the source; their conditions may differ.

In data set [1] the test system is PV-interneurons in mouse prefrontal cortex. In words: two-day ketamine treatment of mice: oxidized DHE, parvalbumin and GAD67 in prefrontal cortex. The class given is in vivo. As for the experimental part: Animals and treatments. […] Male C57BL6 mice were obtained from Jackson Labs, Bar Harbor, Me., at 8-12 weeks and housed in our facility until 15 weeks when they were used for experiments. Ketamine (30 mg/kg) was applied intraperitoneally (IP) on two consecutive days at around 4 pm. DHE was applied 30 min after the last ketamine injection as described (19, 20). Briefly, two serial i.p. injections of freshly prepared dihydroethidium (27 mg/kg) are given at 30 minute intervals. Eighteen hours later, mice are anesthetized with inhaled halothane, and perfused intracardially with cold saline followed by 4% paraformaldehyde in PBS. The Nox inhibitor, apocynin (5 mg/kg/day) was given in the drinking water for a total of seven days, with an assumed intake of […] H2O/mouse/day, and ketamine was applied on the last two days. […] All animal studies were approved by the Animal Care Program at the University of California, San Diego, and are in accordance the PHS Guide for the Care and Use of Laboratory Animals, USDA Regulations, and the AVMA Panel on Euthanasia.
Immunohistochemistry: Brains were frontally sliced in a vibratome into 50 μm coronal sections encompassing the prefrontal cortex region (from Bregma 2.0 to 1.3). Sequential slices were processed for floating-section double immunohistochemistry for the detection of parvalbumin and GAD67. Antigen retrieval was performed by incubation of the slices in 1% sodium borohydride for 15 min as described (see reference 34, below), followed by washing in PBS and incubation in 10% normal goat serum in PBS for 16 h at 4° C. Primary antibodies (Calbindin: 1:5000: Calretinin: 1:2000; Parvalbumin: 1:3000, all rabbit polyclonals from Swant, Bellinzona, Switzerland. GAD67: 1:1000, from Chemicon-Millipore, Temecula, Calif.) were diluted in 2% normal goat serum in PBS and applied to the slices for 18 h at 4° C., after which slices were washed in PBS and incubated in a 1:1000 dilution of ALEXAFLUOR™ (Molecular Probes, Invitrogen, Carlsbad, Calif.) conjugated goat anti-rabbit (568) or goat anti-mouse (488) antibodies for 1 hr at room temperature (rt). Slices were washed in PBS and mounted sequentially in glass slides using […]™ (Vector Laboratories, Burlingame, Calif.), covered with a coverslip and allowed to dry for at least 24 h before confocal imaging.
Six slices were analyzed per animal.
Analysis of superoxide and/or hydrogen peroxide production by confocal imaging of in vivo dihydroethidium (DHE) oxidation. Mice will be injected intraperitoneally (i.p.) with dihydroethidium.

Another data set concerns Nox2, Nox4, p22phox. In words: Western blot of Nox proteins in brain membranes after in vivo ketamine. Particulars: ketamine 30 mg/kg i.p., two consecutive days. (A western blot detects proteins with antibodies after separation by electrophoresis.)
The subject of the next data set is PV-interneurons. In words: parvalbumin and GAD67 immunoreactivity in PV-interneurons in primary neuronal cultures.
The subject of the next data set is Nox2. In words: Nox expression in primary neuronal cultures (immunocytochemistry, Western blot).
In the next data set the test system is IL-6 mRNA. The data set can be described thus: cytokine mRNA by RT-PCR in ketamine-treated primary neuronal cultures. The following applies: ketamine 0.5 μM, up to 24 h.
For the next data set, the system named is primary cultures. The following applies: ketamine 0.5 μM, 1 h and 3 h.
In data set [2] the test system is synaptosomal mitochondria. The data set can be described thus: respiration of synaptosomal mitochondria (oximetry). The following applies: after in vivo ketamine 30 mg/kg, two days.
For another data set, the system named is NADPH oxidase (Nox). The data set can be described thus: Nox activity in synaptosomes by NADPH-dependent oxygen consumption (oximetry). The class given is biochemical, mouse. The following applies: ketamine 30 mg/kg in vivo on two consecutive days. As for the experimental part:
Synaptosomal preparations. […] Mice were euthanized by exposure to a lethal dose of inhaled halothane, followed by cervical dislocation. Brains were rapidly removed, cortices dissected and homogenized in 10 volumes of ice-cold isolation buffer (0.32M sucrose, 1 mM EDTA, 10 mM Tris-HCl buffer, pH 7.4, 10 mM glucose). The homogenate was centrifuged at 3100 rpm for 3 min at 4° C., and the supernatant collected, and the pellet was re-homogenized in half the volume of isolation buffer and centrifuged again. Synaptosomal were then isolated as described (see reference 30, below) modified as follows, the pooled supernatants were mixed with PERCOLL™ (Sigma, St. Louis, Mo.) to a final concentration of 15%, and then layered onto a step gradient of 23% and 40% PERCOLL™, and centrifuged at 16,000 rpm for 5 minutes at 4° C. The uppermost band was extracted, rinsed in isolation buffer, centrifuged and resuspended in synaptosomal buffer (120 mM NaCl, 4.7 mM KCl, 2.2 mM CaCl2, 1.2 mM MgCl2, 25 mM HEPES, 1.2 mM MgSO4, 1.2 mM KH2PO4, 10 mM glucose).
Oxygen consumption studies (oximetry). O2 consumption studies on synaptosomes are carried out. […] Studies were carried out to optimize the concentration of synaptosomal protein required, and to confirm stability and viability of synaptosomes and their mitochondria for up to 6 h.

Data set [3] deals with PV-interneurons in mouse prefrontal cortex. In words: two-day ketamine treatment of mice: oxidized DHE, parvalbumin and GAD67 in prefrontal cortex. The class given is in vivo. Particulars: 24 h following a single ketamine exposure.
Data set [4] deals with primary neuronal cultures. The data set can be described thus: DHE oxidation (superoxide and/or hydrogen peroxide production) in primary neuronal cultures exposed to ketamine. The class given is cell-based, mouse.
For data set [5] the following is noted: in vivo; cited from earlier work.
The next data set concerns NFkB. In words: IL-6 induced superoxide production (DHE oxidation) in neuronal cultures with NFkB inhibitor. Type of data set: cell-based. The following applies: assessed 4 hours later.
The next data set concerns the target T1, IL-6 receptors (Homo sapiens, UniProt P08887).
T1 construct: host or cells: patients with rheumatoid arthritis / juvenile idiopathic arthritis
T1 sequence (P08887 20-468): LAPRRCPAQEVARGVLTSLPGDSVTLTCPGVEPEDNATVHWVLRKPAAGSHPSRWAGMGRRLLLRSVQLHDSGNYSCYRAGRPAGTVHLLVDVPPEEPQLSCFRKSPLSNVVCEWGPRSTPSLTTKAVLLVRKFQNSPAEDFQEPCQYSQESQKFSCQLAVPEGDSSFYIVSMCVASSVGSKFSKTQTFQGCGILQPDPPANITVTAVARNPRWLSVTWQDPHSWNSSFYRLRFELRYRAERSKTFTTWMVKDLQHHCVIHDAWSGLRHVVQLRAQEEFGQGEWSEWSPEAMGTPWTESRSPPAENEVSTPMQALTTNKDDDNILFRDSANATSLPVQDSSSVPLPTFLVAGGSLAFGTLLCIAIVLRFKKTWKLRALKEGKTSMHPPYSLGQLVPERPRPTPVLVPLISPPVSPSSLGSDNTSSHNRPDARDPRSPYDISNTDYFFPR
The following applies: Phase I and II clinical trials, cited from earlier work.

Setting [6] is: 2-day ketamine, saline 30.1±14.3.
Setting [7] is: ketamine 30 mg/kg i.p., two consecutive days.

As to `CNC1(c2ccccc2Cl)CCCCC1=O` (centres unmarked) [ketamine], in data set [1] (setting [6]), the “GAD67 in calbindin cells, mean intensity±SD” value is on record as 44.2±14.5 and the “GAD67 in calretinin cells, mean intensity+SD” value worked out at 44.2±14.5. Further, in [1] (2-day ketamine, saline 133.6±35.6), the “calretinin, mean intensity+SD” value turned out to be 139.4±28.7. Besides, the “calbindin, mean intensity±SD” value in data set [1] (2-day ketamine, saline 215.6±32.1) is 231.6±25.6. Further, in data set [1] (setting [7]), the “oxidized DHE in brain / PFC” value is reported as “widespread increase; also recorded: pronounced increase”; the “parvalbumin and GAD67 immunoreactivity in PV-interneurons of PFC” value is “significant reduction; also recorded: pronounced decrease”. In addition, the “expression of Nox2 and p22phox in membrane preparations of cortical tissue” value in the data set on Nox2, Nox4, p22phox is on record as “significant increase”. Further, the parvalbumin immunoreactivity entry in the data set with PV-interneurons (ketamine 0.5 μM, 24 h) is “reduction”. The Nox4 expression result in the data set on Nox2 (after ketamine treatment, cultures) was “did not see changes”. For the same compound, the “Nox2 immunoreactivity, fluorescence quantification” value in the data set with Nox2 (ketamine 0.5 μM, 24 h, control 100+/−8%) was 170+/−15%. In the data set on IL-6 mRNA, the “levels of other pro-inflammatory cytokines (IL-1, TNF mRNA)” value is recorded as “without affecting”. The “superoxide signals (EPR, DIPPMPO)” value with primary cultures is “rapid increase”. Also, the “metabolic activities of synaptosomal mitochondria” value in [2] is reported as “not affected”. In addition, the “Nox activity in synaptosomes” value in the data set on NADPH oxidase (Nox) is on record as “pronounced increase”. The “effects on PV-interneurons in the prefrontal region” value in [3] is “not present”. The “oxidized DHE (neuronal superoxide and/or hydrogen peroxide production)” value in data set [4] (ketamine 0.5 μM, 24 h) is “significant increase; also recorded: pronounced increase”.

In the case of `NCc1cc(=O)[nH]o1` [muscimol], the “effect on ketamine-mediated loss of parvalbumin and GAD67 immunoreactivity in PV-interneurons” value in the data set on PV-interneurons (co-exposure with ketamine 24 h, muscimol 10 μM, C3, apocynin 0.5 mM) was “prevented; also recorded: preservation”. Moreover, in data set [4] (co-exposure with ketamine 0.5 μM 24 h, muscimol 10 μM, C3 20 μM, apocynin 0.5 mM), the “effect on ketamine-mediated increase in oxidized DHE” value is listed as “prevented; also recorded: complete block”.

For “CNTO-328: human-mouse chimeric monoclonal antibody (Mab) to IL-6 (Centocor)”, the plasma half-life result in data set [5] is listed as “roughly 17 days”.

As for “H2N-Ala-Ala-Val-Ala-Leu-Leu-Pro-Ala-Val-Leu-Leu-Ala-Leu-Leu-Ala-Pro-Val-Gln-Arg-Lys-Arg-Gn-Lvs-Leu-Met-Pro-OH (H-AAVALLPAVLLALLAPVQRKRQKLMP-OH) [SN50]”, the “effect on IL-6 induced superoxide production (DHE oxidation)” value in the data set with NFkB is “blocks”.

Regarding “Tocilizumab: therapeutic humanized monoclonal antibody, specific antagonist for IL-6 receptors”, in data set [5], the “plasma half-life” value is “long plasma half-life”. In addition, the “rheumatoid arthritis disease activity” value with IL-6 receptors (2, 4, 5, 8 or 10 mg/kg, dose-dependent) is “reduced rheumatoid arthritis disease activity significantly”. The safety and tolerability entry with IL-6 receptors was “generally safe and well tolerated”.
